This is an account of results in patent US20240351966A1, “CLASS OF ALKYLPHENOL COMPOUNDS AND PREPARATION METHOD THEREFOR” (Shanghai Institute of Materia Medica, Chinese Academy of …, priority 2021, published 2024).

As a reminder, the IC50 is the point on the concentration scale where inhibition reaches its midpoint. High values mean weaker potency, low ones greater potency.

DRAK2, sequence (O94768 whole entry, species assumed): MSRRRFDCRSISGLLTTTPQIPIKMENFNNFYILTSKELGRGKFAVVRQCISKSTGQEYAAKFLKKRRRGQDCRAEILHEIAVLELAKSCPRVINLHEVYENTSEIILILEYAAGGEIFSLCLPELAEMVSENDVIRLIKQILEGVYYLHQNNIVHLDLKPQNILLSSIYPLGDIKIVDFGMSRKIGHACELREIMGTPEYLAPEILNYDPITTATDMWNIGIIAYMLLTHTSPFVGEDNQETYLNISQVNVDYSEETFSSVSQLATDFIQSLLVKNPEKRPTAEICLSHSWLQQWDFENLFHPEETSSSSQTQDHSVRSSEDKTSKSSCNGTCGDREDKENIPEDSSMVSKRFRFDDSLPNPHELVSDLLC

For this assay, the target named is DRAK2 (Homo sapiens (Human), UniProt O94768). Put plainly: Evaluation of DRAK2 inhibitory activity by ADP-Glo kinase assay. The assay is classed as biochemical. As to conditions: ADP-Glo luminescent kinase assay. An excerpt:
To determine the inhibitory activity of compounds against kinases by the kinase assay kit ADP-GLO.
DRAK2 is a serine/threonine protein kinase. ADP Glo& #8482; Kinase Assay (ADP Glo& #8482; Kinase Assay Kit) is a luminescent kinase assay kit that can detect ADP formed during kinase reactions; this kit can firstly convert ADP into ATP, which is then captured by Ultra Glo& #8482, luciferase and ultimately converts into light. The emitted light signal is positively correlated with the corresponding ATP, thus through this method, the inhibitory activity of small molecule compounds on DRAK2 can be measured.
The compound was dissolved in DMSO before experiment to prepare stock solution.
When using, the stock solution was diluted with culture medium to a desired concentration.
• 1. 1 μl of compound was added to the well for each assay • 2. […] 2 μl of ATP was added to each well of the assay plate • 4. the plate was shook and centrifuged.
2.5 μl ADP-Glo™ reagent was add to terminate kinase reaction and consume unconsumed ATP, leaving only ADP and very low ATP background to incubate at room temperature for 60 minutes.
5 μl of kinase assay reagent was add to convert ADP to ATP, and luciferase and […] were introduced to detect ATP.
Envision was used to measure luminescence
• 1. Values were copied from Envision program
The “minimum” refers to the proportion of without enzyme control, while “maximum” refers to the proportion of DMSO control. • 3. GraphPad Prism 5.0 was used to process data
Through this method, the inhibitory activity of small molecule compounds on DRAK2 can be obtained.
Consider `CCCCCCC=CCCCCCCCc1ccc(O)cc1O` [Compound 1], for which the IC50 stood at 7.73 ± 0.7 µM.

Turning to `CCCCCCc1cccc(CCCc2cc(O)cc(O)c2)c1` [Compound 17], the IC50 was 4.94 ± 1.18 µM.

`CCCCCCc1cccc(CCCc2cc(O)cc(O)c2Cl)c1` [Compound 28] displayed an IC50 of 4.06 ± 0.35 µM.

Regarding `CCCCCCc1cccc(CCCc2cc(O)cc(NS(=O)(=O)CC)c2)c1` [Compound 39], it took 4.93 ± 1.09 µM to reach half-maximal inhibition (IC50).
